# Experimental data from ChEMBL document CHEMBL1255366, “First report of cfr-mediated resistance to linezolid in human staphylococcal clinical isolates recovered in the United States” (2008).
# What was measured:
# Format in all cases: functional
# Staphylococcus aureus [1] = test: Antimicrobial activity against linezolid-resistant Staphylococcus aureus isolate 004-737X expressing cfr and ermA gene isolated from paraplegic patient by broth microdilution method
# [2] = tested on: Staphylococcus epidermidis; test: Antimicrobial activity against Staphylococcus epidermidis isolate 426-3147L expressing cfr gene by broth microdilution CLSI method
# Staphylococcus aureus [3] = test: Antimicrobial activity against linezolid-resistant Staphylococcus aureus isolate 004-737X expressing cfr and ermA gene isolated from paraplegic patient by Etest method
# [4] = tested on: Staphylococcus epidermidis; test: Antimicrobial activity against Staphylococcus epidermidis isolate 426-3147L expressing cfr gene by Etest method
# Staphylococcus aureus [5] = test: Antimicrobial activity against linezolid-resistant Staphylococcus aureus isolate 004-737X expressing cfr and ermA gene isolated from paraplegic patient by disk diffusion method
# [6] = tested on: Staphylococcus epidermidis; test: Antimicrobial activity against Staphylococcus epidermidis isolate 426-3147L expressing cfr gene by disk diffusion method
Compound,MIC (Staphylococcus aureus [1]) [µg/mL],MIC [2] [µg/mL],MIC (Staphylococcus aureus [3]) [µg/mL],MIC [4] [µg/mL],diameter of the inhibition zone (DIZ) (Staphylococcus aureus [5]) [mm],diameter of the inhibition zone (DIZ) [6] [mm]
O=C(N[C@H](CO)[C@H](O)c1ccc([N+](=O)[O-])cc1)C(Cl)Cl [CHLORAMPHENICOL],> 256,> 256,–,–,–,–
O=C(O)c1cn(C2CC2)c2cc(N3CCNCC3)c(F)cc2c1=O [CIPROFLOXACIN],> 32,–,–,–,–,–
CCC[C@@H]1C[C@@H](C(=O)N[C@@H]([C@H]2O[C@H](SC)[C@H](O)[C@@H](O)[C@H]2O)[C@H](C)Cl)N(C)C1 [CLINDAMYCIN],> 256,> 256,–,–,–,–
CC[C@H]1OC(=O)[C@H](C)[C@@H](O[C@H]2C[C@@](C)(OC)[C@@H](O)[C@H](C)O2)[C@H](C)[C@@H](O[C@@H]2O[C@H](C)C[C@H](N(C)C)[C@H]2O)[C@](C)(O)C[C@@H](C)C(=O)[C@H](C)[C@@H](O)[C@]1(C)O [ERYTHROMYCIN],> 256,> 4,–,–,–,–
CC(=O)NC[C@H]1CN(c2ccc(N3CCOCC3)c(F)c2)C(=O)O1 [LINEZOLID],8,> 256,8,> 256,19,6
C/C(=C\C(=O)OCCCCCCCCC(=O)O)C[C@@H]1OC[C@H](C[C@@H]2O[C@H]2[C@@H](C)[C@H](C)O)[C@@H](O)[C@H]1O [MUPIROCIN],0.25,64,–,–,–,–
Cc1onc(-c2ccccc2)c1C(=O)N[C@@H]1C(=O)N2[C@@H]1SC(C)(C)[C@@H]2C(=O)O [OXACILLIN],> 2,> 2,–,–,–,–
C=C[C@]1(C)C[C@@H](OC(=O)CS[C@@H]2C[C@H]3CC[C@@H](C2)N3C)[C@]2(C)[C@H](C)CC[C@]3(CCC(=O)[C@H]32)[C@@H](C)[C@@H]1O [RETAPAMULIN],32,> 32,–,–,–,–
CN(C)[C@@H]1C(O)=C(C(N)=O)C(=O)[C@@]2(O)C(O)=C3C(=O)c4c(O)cccc4[C@@](C)(O)[C@H]3C[C@@H]12 [TETRACYCLINE],> 8,> 8,–,–,–,–
